{"source": "the kinase profiling compilation of Christmann-Franck et al. (2016)", "test_in_all_cases": "radiometric filter-binding kinase assay", "key": {"SIK3 (human)": {"target": "SIK3 (human) (UniProt Q9Y2K2)"}, "DDR2 (human)": {"target": "DDR2 (human) (UniProt Q16832)", "sequence (Q16832 whole entry, looked up)": "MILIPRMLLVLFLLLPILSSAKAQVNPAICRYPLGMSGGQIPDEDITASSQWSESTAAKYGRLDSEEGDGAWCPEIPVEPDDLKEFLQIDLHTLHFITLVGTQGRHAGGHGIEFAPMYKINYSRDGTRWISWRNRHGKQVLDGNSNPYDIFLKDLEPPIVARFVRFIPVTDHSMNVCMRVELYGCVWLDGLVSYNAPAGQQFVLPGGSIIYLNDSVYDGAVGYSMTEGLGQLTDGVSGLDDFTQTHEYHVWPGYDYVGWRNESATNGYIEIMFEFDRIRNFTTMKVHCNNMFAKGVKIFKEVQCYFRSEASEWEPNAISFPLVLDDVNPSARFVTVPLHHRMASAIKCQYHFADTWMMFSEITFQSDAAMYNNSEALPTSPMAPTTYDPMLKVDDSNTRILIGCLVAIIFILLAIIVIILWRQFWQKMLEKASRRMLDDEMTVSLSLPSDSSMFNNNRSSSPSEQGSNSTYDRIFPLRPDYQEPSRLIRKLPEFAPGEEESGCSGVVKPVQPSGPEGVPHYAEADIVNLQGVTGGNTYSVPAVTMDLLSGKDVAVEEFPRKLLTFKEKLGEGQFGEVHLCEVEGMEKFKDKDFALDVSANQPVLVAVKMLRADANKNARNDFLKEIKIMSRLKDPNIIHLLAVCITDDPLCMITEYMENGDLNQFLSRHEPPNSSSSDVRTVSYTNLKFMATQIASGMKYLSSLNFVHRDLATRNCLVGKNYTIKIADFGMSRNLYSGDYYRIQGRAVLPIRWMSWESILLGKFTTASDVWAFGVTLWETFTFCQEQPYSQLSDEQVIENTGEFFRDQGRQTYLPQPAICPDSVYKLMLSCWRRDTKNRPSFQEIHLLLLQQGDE"}, "ABL1 (human)": {"target": "ABL1 (human) (UniProt P00519)"}, "CSNK1G2 (human)": {"target": "CSNK1G2 (human) (UniProt P78368)"}, "PDGFRA (human)": {"target": "PDGFRA (human) (UniProt P16234)"}, "MAP4K5 (human)": {"target": "MAP4K5 (human) (UniProt Q9Y4K4)", "sequence (Q9Y4K4 whole entry, looked up)": "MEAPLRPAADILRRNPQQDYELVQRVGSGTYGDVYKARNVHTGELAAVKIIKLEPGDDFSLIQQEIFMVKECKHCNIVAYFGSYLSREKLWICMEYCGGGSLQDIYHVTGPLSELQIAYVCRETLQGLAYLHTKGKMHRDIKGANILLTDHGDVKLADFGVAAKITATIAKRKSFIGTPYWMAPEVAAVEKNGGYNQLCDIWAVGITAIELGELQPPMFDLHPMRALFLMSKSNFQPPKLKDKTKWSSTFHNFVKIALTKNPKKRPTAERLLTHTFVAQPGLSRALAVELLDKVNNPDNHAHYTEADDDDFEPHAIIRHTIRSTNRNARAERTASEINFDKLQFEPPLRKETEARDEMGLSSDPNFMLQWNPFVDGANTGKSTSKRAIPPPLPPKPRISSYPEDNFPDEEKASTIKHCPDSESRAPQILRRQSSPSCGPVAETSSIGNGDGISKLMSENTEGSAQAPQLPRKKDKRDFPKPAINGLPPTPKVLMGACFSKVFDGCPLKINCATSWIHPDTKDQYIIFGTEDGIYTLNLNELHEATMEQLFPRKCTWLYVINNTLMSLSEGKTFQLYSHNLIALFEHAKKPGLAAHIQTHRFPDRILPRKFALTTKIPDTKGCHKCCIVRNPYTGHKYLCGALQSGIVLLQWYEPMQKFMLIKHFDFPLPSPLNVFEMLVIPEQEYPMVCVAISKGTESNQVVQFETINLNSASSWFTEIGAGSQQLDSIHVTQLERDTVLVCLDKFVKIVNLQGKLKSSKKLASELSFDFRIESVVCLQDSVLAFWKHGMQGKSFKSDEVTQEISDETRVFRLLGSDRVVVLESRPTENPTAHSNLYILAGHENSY"}, "[1]": {"target": "PRKAA1 PRKAB2 PRKAG1 (human) (UniProt O43741+Q13131+P54619)"}, "CDK9 CCNT1 (human)": {"target": "CDK9 CCNT1 (human) (UniProt P50750+O60563)"}, "PRKCG (human)": {"target": "PRKCG (human) (UniProt P05129)"}, "IRAK1 (human)": {"target": "IRAK1 (human) (UniProt P51617)"}, "TESK1 (human)": {"target": "TESK1 (human) (UniProt Q15569)"}, "PRKAA1 or PRKAA2 (rat)": {"system": "PRKAA1 or PRKAA2 (rat)", "conditions": "accession and sequence are those of the human protein"}, "MAP4K3 (human)": {"target": "MAP4K3 (human) (UniProt Q8IVH8)"}, "TEK (human)": {"target": "TEK (human) (UniProt Q02763)"}, "WNK1 (human)": {"target": "WNK1 (human) (UniProt Q9H4A3)"}, "STK33 (human)": {"target": "STK33 (human) (UniProt Q9BYT3)"}, "TSSK1B (human)": {"target": "TSSK1B (human) (UniProt Q9BXA7)", "sequence (Q9BXA7 whole entry, looked up)": "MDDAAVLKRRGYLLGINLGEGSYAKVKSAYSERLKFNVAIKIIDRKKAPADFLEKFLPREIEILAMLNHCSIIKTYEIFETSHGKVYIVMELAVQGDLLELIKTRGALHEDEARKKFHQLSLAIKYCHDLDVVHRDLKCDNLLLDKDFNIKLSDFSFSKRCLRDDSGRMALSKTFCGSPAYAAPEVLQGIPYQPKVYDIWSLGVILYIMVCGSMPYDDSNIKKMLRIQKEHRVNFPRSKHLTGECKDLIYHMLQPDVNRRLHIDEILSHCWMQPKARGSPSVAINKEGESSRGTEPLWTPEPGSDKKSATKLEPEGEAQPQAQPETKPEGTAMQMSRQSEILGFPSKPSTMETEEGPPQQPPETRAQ"}, "ULK1 (human)": {"target": "ULK1 (human) (UniProt O75385)"}, "SIK2 (human)": {"target": "SIK2 (human) (UniProt Q9H0K1)"}, "ZAP70 (human)": {"target": "ZAP70 (human) (UniProt P43403)", "conditions": "compound 1.0 µM"}, "STK16 (human)": {"target": "STK16 (human) (UniProt O75716)", "conditions": "compound 10.0 µM"}, "TTBK1 (human)": {"target": "TTBK1 (human) (UniProt Q5TCY1)"}, "MAPKAPK3 (human)": {"target": "MAPKAPK3 (human) (UniProt Q16644)"}, "TTBK2 (human)": {"target": "TTBK2 (human) (UniProt Q6IQ55)"}, "[2]": {"system": "OXSR1 (human), O95747 [T185E]", "sequence (O95747 whole entry T185E, looked up)": "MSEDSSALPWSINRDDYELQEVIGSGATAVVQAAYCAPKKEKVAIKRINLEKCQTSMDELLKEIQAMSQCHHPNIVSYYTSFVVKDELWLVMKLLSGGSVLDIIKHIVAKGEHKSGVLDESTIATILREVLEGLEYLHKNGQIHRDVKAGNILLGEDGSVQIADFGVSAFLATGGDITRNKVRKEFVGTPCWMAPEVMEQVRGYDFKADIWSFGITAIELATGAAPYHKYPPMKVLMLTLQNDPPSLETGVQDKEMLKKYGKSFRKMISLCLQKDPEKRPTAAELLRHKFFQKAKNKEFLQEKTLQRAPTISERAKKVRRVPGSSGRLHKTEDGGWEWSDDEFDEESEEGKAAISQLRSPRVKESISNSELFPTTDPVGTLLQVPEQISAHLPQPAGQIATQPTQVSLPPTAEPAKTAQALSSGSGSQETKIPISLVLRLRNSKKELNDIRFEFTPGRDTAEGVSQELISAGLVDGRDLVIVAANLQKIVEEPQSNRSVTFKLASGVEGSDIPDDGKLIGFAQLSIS"}, "PTK6 (human)": {"target": "PTK6 (human) (UniProt Q13882)"}, "ULK2 (human)": {"target": "ULK2 (human) (UniProt Q8IYT8)", "sequence (Q8IYT8 whole entry, looked up)": "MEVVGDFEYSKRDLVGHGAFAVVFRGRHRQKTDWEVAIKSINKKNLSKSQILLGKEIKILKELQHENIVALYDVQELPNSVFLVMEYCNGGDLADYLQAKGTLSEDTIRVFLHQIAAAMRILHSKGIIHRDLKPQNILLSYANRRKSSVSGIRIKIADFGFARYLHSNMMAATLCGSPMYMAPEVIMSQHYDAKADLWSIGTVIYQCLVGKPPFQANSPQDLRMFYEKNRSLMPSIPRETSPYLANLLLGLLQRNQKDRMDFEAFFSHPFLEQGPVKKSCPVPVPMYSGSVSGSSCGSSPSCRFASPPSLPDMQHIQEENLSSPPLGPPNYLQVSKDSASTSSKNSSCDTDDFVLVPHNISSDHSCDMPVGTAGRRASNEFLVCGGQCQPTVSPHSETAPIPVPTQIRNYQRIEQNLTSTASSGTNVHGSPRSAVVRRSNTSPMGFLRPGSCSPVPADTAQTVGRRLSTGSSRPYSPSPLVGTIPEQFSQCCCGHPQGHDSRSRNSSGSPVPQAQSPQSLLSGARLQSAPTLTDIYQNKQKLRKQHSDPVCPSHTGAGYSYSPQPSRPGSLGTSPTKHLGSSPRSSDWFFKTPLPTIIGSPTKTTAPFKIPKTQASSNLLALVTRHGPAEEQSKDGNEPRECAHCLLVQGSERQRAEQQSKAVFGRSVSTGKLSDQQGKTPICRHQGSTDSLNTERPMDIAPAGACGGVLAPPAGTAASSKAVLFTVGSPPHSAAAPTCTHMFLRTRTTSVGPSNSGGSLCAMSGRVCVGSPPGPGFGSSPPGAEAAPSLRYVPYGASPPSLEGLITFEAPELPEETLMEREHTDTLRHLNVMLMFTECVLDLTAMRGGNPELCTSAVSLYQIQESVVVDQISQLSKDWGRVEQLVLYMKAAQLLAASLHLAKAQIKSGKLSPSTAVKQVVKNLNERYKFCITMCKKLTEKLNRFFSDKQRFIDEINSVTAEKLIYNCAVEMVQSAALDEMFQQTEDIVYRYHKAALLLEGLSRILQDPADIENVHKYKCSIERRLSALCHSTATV"}, "TLK1 (human)": {"target": "TLK1 (human) (UniProt Q9UKI8)"}, "STK24 (human)": {"target": "STK24 (human) (UniProt Q9Y6E0)", "sequence (Q9Y6E0 whole entry, looked up)": "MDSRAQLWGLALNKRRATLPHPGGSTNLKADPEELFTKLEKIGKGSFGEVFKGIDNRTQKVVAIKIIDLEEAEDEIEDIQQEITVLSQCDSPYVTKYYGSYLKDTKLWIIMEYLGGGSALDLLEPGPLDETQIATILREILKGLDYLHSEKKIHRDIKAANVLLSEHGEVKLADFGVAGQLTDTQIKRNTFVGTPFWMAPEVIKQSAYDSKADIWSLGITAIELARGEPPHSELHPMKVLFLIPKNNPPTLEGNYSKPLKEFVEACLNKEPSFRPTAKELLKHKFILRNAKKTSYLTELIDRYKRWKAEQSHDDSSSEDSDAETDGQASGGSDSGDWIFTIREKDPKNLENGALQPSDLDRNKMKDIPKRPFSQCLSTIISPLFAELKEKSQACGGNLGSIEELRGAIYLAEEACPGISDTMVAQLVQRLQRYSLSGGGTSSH"}, "EIF2AK3 (human)": {"target": "EIF2AK3 (human) (UniProt Q9NZJ5)"}}, "data": [{"smiles": "CC1=C(CO)C(=O)O[C@@H]([C@@H](C)[C@H]2CC[C@H]3[C@@H]4C[C@H]5O[C@]56[C@@H](O)C=CC(=O)[C@]6(C)C4CC[C@]23C)C1", "note": "(some centres not stated)", "values": [{"measurement": "residual activity", "setting": "SIK3 (human); compound 0.1 µM", "result": 105, "unit": "%"}, {"measurement": "residual activity", "setting": "SIK3 (human); compound 1.0 µM", "result": 106, "unit": "%"}, {"measurement": "residual activity", "setting": "SIK3 (human); compound 10.0 µM", "result": 94, "unit": "%"}, {"measurement": "residual activity", "setting": "DDR2 (human); compound 0.1 µM", "result": 105, "unit": "%"}, {"measurement": "residual activity", "setting": "DDR2 (human); compound 1.0 µM", "result": 100, "unit": "%"}, {"measurement": "residual activity", "setting": "DDR2 (human); compound 10.0 µM", "result": 94, "unit": "%"}, {"measurement": "residual activity", "setting": "ABL1 (human); compound 0.1 µM", "result": 101, "unit": "%"}, {"measurement": "residual activity", "setting": "ABL1 (human); compound 1.0 µM", "result": 110, "unit": "%"}, {"measurement": "residual activity", "setting": "ABL1 (human); compound 10.0 µM", "result": 106, "unit": "%"}, {"measurement": "residual activity", "setting": "CSNK1G2 (human); compound 0.1 µM", "result": 109, "unit": "%"}, {"measurement": "residual activity", "setting": "CSNK1G2 (human); compound 1.0 µM", "result": 104, "unit": "%"}, {"measurement": "residual activity", "setting": "CSNK1G2 (human); compound 10.0 µM", "result": 103, "unit": "%"}, {"measurement": "residual activity", "setting": "PDGFRA (human); compound 1.0 µM", "result": 117, "unit": "%"}, {"measurement": "residual activity", "setting": "PDGFRA (human); compound 10.0 µM", "result": 121, "unit": "%"}, {"measurement": "residual activity", "setting": "MAP4K5 (human); compound 0.1 µM", "result": 106, "unit": "%"}, {"measurement": "residual activity", "setting": "MAP4K5 (human); compound 1.0 µM", "result": 110, "unit": "%"}, {"measurement": "residual activity", "setting": "MAP4K5 (human); compound 10.0 µM", "result": 94, "unit": "%"}, {"measurement": "residual activity", "setting": "[1]; compound 0.1 µM", "result": 107, "unit": "%"}, {"measurement": "residual activity", "setting": "[1]; compound 1.0 µM", "result": 120, "unit": "%"}, {"measurement": "residual activity", "setting": "[1]; compound 10.0 µM", "result": 112, "unit": "%"}, {"measurement": "residual activity", "setting": "CDK9 CCNT1 (human); compound 0.1 µM", "result": 94, "unit": "%"}, {"measurement": "residual activity", "setting": "CDK9 CCNT1 (human); compound 1.0 µM", "result": 97, "unit": "%"}, {"measurement": "residual activity", "setting": "CDK9 CCNT1 (human); compound 10.0 µM", "result": 107, "unit": "%"}, {"measurement": "residual activity", "setting": "PRKCG (human); compound 0.1 µM", "result": 119, "unit": "%"}, {"measurement": "residual activity", "setting": "PRKCG (human); compound 1.0 µM", "result": 112, "unit": "%"}, {"measurement": "residual activity", "setting": "PRKCG (human); compound 10.0 µM", "result": 102, "unit": "%"}, {"measurement": "residual activity", "setting": "IRAK1 (human); compound 0.1 µM", "result": 101, "unit": "%"}, {"measurement": "residual activity", "setting": "IRAK1 (human); compound 1.0 µM", "result": 99, "unit": "%"}, {"measurement": "residual activity", "setting": "IRAK1 (human); compound 10.0 µM", "result": 100, "unit": "%"}, {"measurement": "residual activity", "setting": "TESK1 (human); compound 0.1 µM", "result": 109, "unit": "%"}, {"measurement": "residual activity", "setting": "TESK1 (human); compound 1.0 µM", "result": 114, "unit": "%"}, {"measurement": "residual activity", "setting": "TESK1 (human); compound 10.0 µM", "result": 104, "unit": "%"}, {"measurement": "residual activity", "setting": "PRKAA1 or PRKAA2 (rat); compound 0.1 µM", "result": 99, "unit": "%"}, {"measurement": "residual activity", "setting": "PRKAA1 or PRKAA2 (rat); compound 1.0 µM", "result": 100, "unit": "%"}, {"measurement": "residual activity", "setting": "PRKAA1 or PRKAA2 (rat); compound 10.0 µM", "result": 90, "unit": "%"}, {"measurement": "residual activity", "setting": "MAP4K3 (human); compound 0.1 µM", "result": 81, "unit": "%"}, {"measurement": "residual activity", "setting": "MAP4K3 (human); compound 1.0 µM", "result": 85, "unit": "%"}, {"measurement": "residual activity", "setting": "MAP4K3 (human); compound 10.0 µM", "result": 84, "unit": "%"}, {"measurement": "residual activity", "setting": "TEK (human); compound 1.0 µM", "result": 98, "unit": "%"}, {"measurement": "residual activity", "setting": "TEK (human); compound 10.0 µM", "result": 83, "unit": "%"}, {"measurement": "residual activity", "setting": "WNK1 (human); compound 0.1 µM", "result": 117, "unit": "%"}, {"measurement": "residual activity", "setting": "WNK1 (human); compound 1.0 µM", "result": 111, "unit": "%"}, {"measurement": "residual activity", "setting": "WNK1 (human); compound 10.0 µM", "result": 113, "unit": "%"}, {"measurement": "residual activity", "setting": "STK33 (human); compound 0.1 µM", "result": 116, "unit": "%"}, {"measurement": "residual activity", "setting": "STK33 (human); compound 10.0 µM", "result": 120, "unit": "%"}, {"measurement": "residual activity", "setting": "TSSK1B (human); compound 0.1 µM", "result": 100, "unit": "%"}, {"measurement": "residual activity", "setting": "TSSK1B (human); compound 1.0 µM", "result": 102, "unit": "%"}, {"measurement": "residual activity", "setting": "TSSK1B (human); compound 10.0 µM", "result": 78, "unit": "%"}, {"measurement": "residual activity", "setting": "ULK1 (human); compound 0.1 µM", "result": 108, "unit": "%"}, {"measurement": "residual activity", "setting": "ULK1 (human); compound 1.0 µM", "result": 115, "unit": "%"}, {"measurement": "residual activity", "setting": "ULK1 (human); compound 10.0 µM", "result": 111, "unit": "%"}, {"measurement": "residual activity", "setting": "SIK2 (human); compound 0.1 µM", "result": 82, "unit": "%"}, {"measurement": "residual activity", "setting": "SIK2 (human); compound 1.0 µM", "result": 78, "unit": "%"}, {"measurement": "residual activity", "setting": "SIK2 (human); compound 10.0 µM", "result": 66, "unit": "%"}, {"measurement": "residual activity", "setting": "ZAP70 (human)", "result": 113, "unit": "%"}, {"measurement": "residual activity", "setting": "STK16 (human)", "result": 126, "unit": "%"}, {"measurement": "residual activity", "setting": "TTBK1 (human); compound 0.1 µM", "result": 100, "unit": "%"}, {"measurement": "residual activity", "setting": "TTBK1 (human); compound 1.0 µM", "result": 118, "unit": "%"}, {"measurement": "residual activity", "setting": "TTBK1 (human); compound 10.0 µM", "result": 95, "unit": "%"}, {"measurement": "residual activity", "setting": "MAPKAPK3 (human); compound 0.1 µM", "result": 120, "unit": "%"}, {"measurement": "residual activity", "setting": "MAPKAPK3 (human); compound 1.0 µM", "result": 85, "unit": "%"}, {"measurement": "residual activity", "setting": "MAPKAPK3 (human); compound 10.0 µM", "result": 47, "unit": "%"}, {"measurement": "residual activity", "setting": "TTBK2 (human); compound 0.1 µM", "result": 108, "unit": "%"}, {"measurement": "residual activity", "setting": "TTBK2 (human); compound 1.0 µM", "result": 105, "unit": "%"}, {"measurement": "residual activity", "setting": "TTBK2 (human); compound 10.0 µM", "result": 112, "unit": "%"}, {"measurement": "residual activity", "setting": "[2]; compound 0.1 µM", "result": 128, "unit": "%"}, {"measurement": "residual activity", "setting": "[2]; compound 1.0 µM", "result": 109, "unit": "%"}, {"measurement": "residual activity", "setting": "[2]; compound 10.0 µM", "result": 125, "unit": "%"}, {"measurement": "residual activity", "setting": "PTK6 (human); compound 0.1 µM", "result": 109, "unit": "%"}, {"measurement": "residual activity", "setting": "PTK6 (human); compound 1.0 µM", "result": 123, "unit": "%"}, {"measurement": "residual activity", "setting": "ULK2 (human); compound 0.1 µM", "result": 92, "unit": "%"}, {"measurement": "residual activity", "setting": "ULK2 (human); compound 1.0 µM", "result": 96, "unit": "%"}, {"measurement": "residual activity", "setting": "ULK2 (human); compound 10.0 µM", "result": 90, "unit": "%"}, {"measurement": "residual activity", "setting": "TLK1 (human); compound 0.1 µM", "result": 101, "unit": "%"}, {"measurement": "residual activity", "setting": "TLK1 (human); compound 1.0 µM", "result": 103, "unit": "%"}, {"measurement": "residual activity", "setting": "TLK1 (human); compound 10.0 µM", "result": 98, "unit": "%"}, {"measurement": "residual activity", "setting": "STK24 (human); compound 0.1 µM", "result": 111, "unit": "%"}, {"measurement": "residual activity", "setting": "STK24 (human); compound 1.0 µM", "result": 126, "unit": "%"}, {"measurement": "residual activity", "setting": "STK24 (human); compound 10.0 µM", "result": 133, "unit": "%"}, {"measurement": "residual activity", "setting": "EIF2AK3 (human); compound 0.1 µM", "result": 129, "unit": "%"}, {"measurement": "residual activity", "setting": "EIF2AK3 (human); compound 1.0 µM", "result": 108, "unit": "%"}, {"measurement": "residual activity", "setting": "EIF2AK3 (human); compound 10.0 µM", "result": 115, "unit": "%"}]}]}
